Patent publication US6911474B2, “Methods, compounds, and compositions for reducing body fat and modulating fatty acid metabolism” (The Regents of the University of California, priority 2001, dated 2005)
Ends that are not written are not given here.

Tests used:
[1] = Acute food intake in 24-h food-deprived rats after i.p. administration; type: in vivo, rat; conditions: 24-h food-deprived rats, 15 min before food presentation, FIG. 4a,b
Method: Feeding experiments. Acute experiments. Food intake was measured in 24-h food-deprived rats (Navarro et al., J. Neurochem., 67:1982-1991 (1996)), administering drugs 15 min before food presentation. Subchronic experiments. Ad libitum fed rats received vehicle injections for three days. On day four, the animals were divided in two equal groups and gave them daily injections of vehicle or OEA (5 mg per kg at 1900 h) for 7 consecutive days, while measuring body weight, food intake and water intake.
The effects of systemically administered OEA on food intake in rats can be assessed using a 24 h fast. […] To define the selectivity of this response, various OEA analogs were evaluated for their ability to produce hypophagia.

[2] = tested on: Soleus muscle; assay: [14C]oleate oxidation to CO2 in soleus muscle; type: cell-based, rat; conditions: soleus muscle, structure-activity relationship; FIG. 8
[3] = Food intake in capsaicin-treated rats (sensory fibers destroyed); type: in vivo, rat; conditions: OEA 10 mg per kg, i.p., FIG. 6a,c
Description: Chemicals. FAEs and [^2H4] FAEs were synthesized in the laboratory (Giuffrida et al., “Lipid Second Messengers” (ed. Laychock, S. G. & Rubin, R. P.) 113-133 (CRC Press LLC, Boca Raton, Fla., 1998)); 1,2-dioleyl-sn-glycero-phosphoethanolamine-N-oleyl was purchased from Avanti Polar Lipids (Alabaster, Ala.); SR141716A was provided by RBI (Natick, Mass.) as part of the Chemical Synthesis Program of the NIMH (N01MH30003); SR144528 was a generous gift of Sanofi Recherche; all other drugs were from Tocris (Ballwin, Mo.) or Sigma (Saint Louis, Mo.). FAE were dissolved in dimethylsulphoxide (DMSO) and administered in 70% DMSO in sterile saline (acute treatments) or 5% Tween 80/5% propylenglycol in sterile saline (subchronic treatments) (1 ml per kg, i.p.). Capsaicin was administered in 10% Tween 80/10% ethanol/80% saline; SR141716A, SR144528, CCK-8 and CP-93129 in 5% Tween 80/5% propylenglycol/90% saline (1 ml per kg, i.p.).
These findings support the hypothesis that OEA causes hypophagia by acting at a peripheral site, and that sensory fibers are required for this effect.

[4] = Conditioned taste aversion; type: in vivo, rat; conditions: OEA 20 mg per kg, i.p.; lithium chloride 0.4 M, 7.5 ml per kg; FIG. 4c
Method: Conditioned taste aversion. Rats were water-deprived for 24 h and then accustomed to drink from a graded bottle during a 30-min test period for four days. On day five, water was substituted with a 0.1% saccharin solution and, 30 min later, the animals received injections of vehicle, OEA (20 mg per kg) or lithium chloride (0.4 M, 7.5 ml per kg). During the following two days, water consumption was recorded over 30-min test periods. The animals were then presented with water or saccharin, and drinking measured.

Compound | suppression of food intake (hypophagia) [1] | mimicking of the effect of OEA on skeletal muscle fatty acid oxidation [2] | food intake response of capsaicin-treated rats [3] | conditioned taste aversion [4]
CCCCC/C=C\C/C=C\C/C=C\C/C=C\CCCC(=O)NCCO [Anandamide, arachidonylethanolamide, reference compound] | no effect | not |  | 
O=c1ccc2[nH]cc(C3=CCNCC3)c2[nH]1 [CP-93129] |  |  | responded normally | 
CCCCCCCCCCCCCCCC(=O)NCCO [Palmitylethanolamide, palmitylethanolamide] | active but significantly less potent than OEA | only partially |  | 
[Cl-].[Li+] [lithium chloride] |  |  |  | readily provoked
CCCCCCCC/C=C\CCCCCCCC(=O)O [oleic acid, reference compound] | no effect | not |  | 
cholecystokinin-8 (DYMGWMDF; ends and bridges not checked; UniProt P06307 96-103, looked up) [CCK-8, peripherally administered cholecystokinin-8] |  |  | failed to respond | 
